# Reference: patent US20250275969A1, “METHODS OF TREATING MALIGNANT PERIPHERAL NERVE SHEATH TUMOR (MPNST) USING LSD1 INHIBITORS” (ORYZON GENOMICS, S.A., priority 2022, published 2025)
# What was measured:
# Assay type in all cases: cell-based
# sNF02.2 = assay: MPNST viability assay (6 days, MTT or AlamarBlue); details: for EC50: cell viability, sNF02.2, 6 days of treatment
# Procedure: (§1) Mycoplasma-free MPNST cell lines (see Table 1) were seeded in 50 μl/well of complete medium (DMEM high glucose supplemented with 1× GlutaMAX™, 1× sodium pyruvate and 10% fetal bovine serum (FBS), Thermo Fisher) in 96-well plates at the optimal cell density to ensure log-phase growth throughout the duration of the experiment (see Table 1). The day after seeding, 50 μl of medium containing 9 serial dilutions (1:3) of 2×-concentrated iadademstat (LSD1 inhibitor; used as the dihydrochloride salt) were added to the cells to obtain 100 μl of cells treated with 1×-concentrated compound at each dilution. Etoposide (topoisomerase II/DNA synthesis inhibitor) was also included as a positive control of the assay. Additionally, from the MPNST cell line panel, two cell lines (sNF96.2 and sNF02.2) were selected to evaluate the effect of other LSD1 inhibitors, i.e. bomedemstat (bis-tosylate salt) and pulrodemstat (besylate salt). Each experimental condition was tested in technical triplicates, including medium-only wells and vehicle-treated controls for background correction and normalization, respectively. After treatment, cells were incubated at 37° C. in a humidified and controlled 5% CO2 atmosphere for 72 h. At this time-point, compound and medium refreshment was performed by adding 50 μl of medium supplemented with 1×-concentrated compound at each corresponding dilution. Cells were incubated for additional 72 h (for a total of 6 days) prior to evaluating cell viability using either the MTT assay (Sigma-Aldrich) or AlamarBlue™ Cell viability reagent (Life Technologies), following manufacturer's instructions. Background was calculated as the mean of the values of medium-only controls and subtracted from each data point. The average of background-corrected technical triplicates was calculated and normalized by the mean of vehicle-treated controls (corresponding to 100% of viability). Data were analyzed using GraphPad PRISM® version 9.0.1 (GraphPad Software, Inc., La Jolla, CA/USA) to calculate the best-fitting curves and the EC50 values (corresponding to the concentration of compound at which a half (50%) maximal effect is obtained; lower EC50 values thus indicate greater potency).
# (§2) LSD1 inhibitors such as iadademstat have been reported to exert their therapeutic effect by inducing cancer cell differentiation and inhibiting cancer cell proliferation rather than by killing cancer cells (Sacilotto N et al., ACS Pharmacol Transl Sci, 2021, 4(6):1818-34, doi: 10.1021/acsptsci.1c00223). In line with this, a cancer cell viability reduction of more than 30% reflects a potent therapeutic effect of the corresponding LSD1 inhibitor. In the present experiment, the response obtained after LSD1 inhibitor treatment was therefore classified into the following three groups: (1) strong response (viability reduction >30%); (2) medium response (viability reduction >15% and <30%); (3) low response (viability reduction <15%). Table 3 summarizes the EC50 values obtained for etoposide (the positive control of the assay) and iadademstat together with the classification according to viability reduction after LSD1 inhibitor treatment.
# sNF96.2 = assay: MPNST viability assay (6 days, MTT or AlamarBlue); details: for EC50: cell viability, sNF96.2, 6 days of treatment
# Procedure: as §1, §2
# MPNST-SP-01 = assay: MPNST viability assay (6 days, MTT or AlamarBlue)
# Procedure: as §1, §2
# MPNST-NF1-09 = assay: MPNST viability assay (6 days, MTT or AlamarBlue)
# Procedure: as §1, §2
# 90-8TL = assay: MPNST viability assay (6 days, MTT or AlamarBlue); details: for EC50: cell viability, 6 days of treatment
# Procedure: as §1, §2
# NMS-2 = assay: MPNST viability assay (6 days, MTT or AlamarBlue)
# Procedure: as §1, §2
# S462 = assay: MPNST viability assay (6 days, MTT or AlamarBlue); details: for EC50: cell viability, S462, 6 days of treatment
# Procedure: as §1, §2
# ST88-14 = assay: MPNST viability assay (6 days, MTT or AlamarBlue); details: for EC50: cell viability, ST88-14, 6 days of treatment
# Procedure: as §1, §2
# MPNST-NF1-08 = assay: MPNST viability assay (6 days, MTT or AlamarBlue)
# Procedure: as §1, §2
# MPNST-SP-10 = assay: MPNST viability assay (6 days, MTT or AlamarBlue); details: for EC50: cell viability, MPNST-SP-10, 6 days of treatment
# Procedure: as §1, §2
# MPNST-NF1-18b = assay: MPNST viability assay (6 days, MTT or AlamarBlue); details: for EC50: cell viability, 6 days of treatment
# Procedure: as §1, §2
# HS-PSS = assay: MPNST viability assay (6 days, MTT or AlamarBlue); details: for EC50: cell viability, 6 days of treatment
# Procedure: as §1, §2
# [1] = test system: panel of 12 MPNST cell lines; assay: MPNST viability assay, summary over the cell line panel
# Procedure: as §1
# A panel of 12 MPNST cell lines was used to evaluate the effects of the LSD1 inhibitor iadademstat on MPNST cell viability after 6 days of treatment, and etoposide was used as a positive control of the assay. In order for the in vitro experiments to reliably mirror the situation in the clinical setting, where MPNST patients feature a great genomic heterogeneity, a panel of different types of MPNST cell lines was used. The panel comprises both MPNST immortalized lines and MPNST cell lines derived from patients. […]
# [2] = viability reduction class, 6 days
smiles,measurement,setting,value
"CN1CCN(C(=O)[C@H](CCCN[C@@H]2C[C@H]2c2ccc(F)cc2)NC(=O)c2ccc(-n3ccnn3)cc2)CC1 [Bomedemstat, N-[(2S)-5-{[(1R,2S)-2-(4-fluorophenyl)cyclopropyl]amino}-1-(4-methylpiperazin-1-yl)-1-oxopentan-2-yl]-4-(1H-1,2,3-triazol-1-yl)benzamide]",EC50,sNF02.2; 144 h,0.094 nM
same,EC50,sNF96.2; 144 h,1.28 nM
"COc1ccc(-c2c(-c3ccc(C#N)c(F)c3)nc(N3CCC(N)CC3)n(C)c2=O)cc1F [Pulrodemstat, 4-[2-(4-aminopiperidin-1-yl)-5-(3-fluoro-4-methoxyphenyl)-1-methyl-6-oxo-1,6-dihydropyrimidin-4-yl]-2-fluorobenzonitrile]",EC50,sNF02.2; 144 h,0.166 nM
same,EC50,sNF96.2; 144 h,0.261 nM
COc1cc([C@@H]2c3cc4c(cc3[C@@H](O[C@@H]3O[C@@H]5CO[C@@H](C)O[C@H]5[C@H](O)[C@H]3O)[C@H]3COC(=O)[C@H]23)OCO4)cc(OC)c1O [etoposide],EC50,"MPNST-SP-01; cell viability, MPNST-SP-01, 6 days of treatment",1030 nM
same,EC50,"MPNST-NF1-09; cell viability, MPNST-NF1-09, 6 days of treatment",737 nM
same,EC50,sNF02.2,144 nM
same,EC50,90-8TL,164 nM
same,EC50,sNF96.2,108 nM
same,EC50,"NMS-2; cell viability, NMS-2, 6 days of treatment",154 nM
same,EC50,S462,376 nM
same,EC50,ST88-14,788 nM
same,EC50,"MPNST-NF1-08; cell viability, MPNST-NF1-08, 6 days of treatment",740 nM
same,EC50,MPNST-SP-10,269 nM
same,EC50,MPNST-NF1-18b,394 nM
same,EC50,HS-PSS,205 nM
"N[C@H]1CC[C@H](N[C@@H]2C[C@H]2c2ccccc2)CC1 [iadademstat, (trans)-N1-((1R,2S)-2-phenylcyclopropyl)cyclohexane-1,4-diamine]",Response to iadademstat (viability assay),"MPNST-SP-01; viability reduction class, MPNST-SP-01, 6 days",Low response (low response (viability reduction <15%))
same,Response to iadademstat (viability assay),"MPNST-NF1-09; viability reduction class, MPNST-NF1-09, 6 days",Low response (low response (viability reduction <15%))
same,EC50,sNF02.2; 144 h,0.017 nM
same,potency among the LSD1 inhibitors tested (in words),"sNF02.2; sNF02.2, compared with bomedemstat and pulrodemstat",highest potency
same,Response to iadademstat (viability assay),"sNF02.2; viability reduction class, sNF02.2, 6 days",Medium response (medium response (viability reduction >15% and <30%))
same,EC50,90-8TL; 144 h,0.026 nM
same,Response to iadademstat (viability assay),90-8TL; [2],Medium response (medium response (viability reduction >15% and <30%))
same,EC50,sNF96.2; 144 h,0.042 nM
same,potency among the LSD1 inhibitors tested (in words),"sNF96.2; sNF96.2, compared with bomedemstat and pulrodemstat",highest potency
same,Response to iadademstat (viability assay),"sNF96.2; viability reduction class, sNF96.2, 6 days",Strong response (strong response (viability reduction >30%))
same,Response to iadademstat (viability assay),"NMS-2; viability reduction class, NMS-2, 6 days",Low response (low response (viability reduction <15%))
same,EC50,S462; 144 h,0.087 nM
same,Response to iadademstat (viability assay),"S462; viability reduction class, S462, 6 days",Strong response (strong response (viability reduction >30%))
same,EC50,ST88-14; 144 h,0.039 nM
same,Response to iadademstat (viability assay),"ST88-14; viability reduction class, ST88-14, 6 days",Medium response (medium response (viability reduction >15% and <30%))
same,Response to iadademstat (viability assay),"MPNST-NF1-08; viability reduction class, MPNST-NF1-08, 6 days",Low response (low response (viability reduction <15%))
same,EC50,MPNST-SP-10; 144 h,0.033 nM
same,Response to iadademstat (viability assay),"MPNST-SP-10; viability reduction class, MPNST-SP-10, 6 days",Medium response (medium response (viability reduction >15% and <30%))
same,EC50,MPNST-NF1-18b; 144 h,0.025 nM
same,Response to iadademstat (viability assay),MPNST-NF1-18b; [2],Strong response (strong response (viability reduction >30%))
same,EC50,HS-PSS; 144 h,0.046 nM
same,Response to iadademstat (viability assay),HS-PSS; [2],Medium response (medium response (viability reduction >15% and <30%))
same,cell lines showing a strong viability reduction,"[1]; 3 out of 12 cell lines, 6-day treatment",25%
same,cell lines showing a medium viability reduction,"[1]; 5 out of 12 cell lines, 6-day treatment",41.67%
same,EC50 values (in words),[1]; medium- and strong-responding cell lines,subnanomolar
same,"medium- and strong-responding cell lines, total","[1]; of 12 cell lines, 6-day treatment",66.67%
